Measured values from publication PMC8698377, “In Vitro Hepatic Assessment of Cineole and Its Derivatives in Common Brushtail Possums (Trichosurus vulpecula) and Rodents” (Biology, 2021).

What was measured:
CYP3A [1] = test: CYP3A catalytic activity (erythromycin-N-demethylation), mouse hepatic microsomes; type: in vitro ADME; conditions: for activity at 30 min, 12.5 µM / activity at 30 min, 25 µM: liver microsomes, pH 7.4, probe erythromycin, read-out: CYP3A catalytic activity, % of Control
Description: (§1) Microsomal preparation was as previously outlined. Individual livers were placed in beakers containing 1.15% KCl. All the procedures were carried out at 0–4 °C. The liver samples were minced and homogenised in buffer A (0.1 M Tris, 0.1 M potassium chloride, 1 mM EDTA, and 20 μM butylated hydroxytoluene, at pH = 7.4) using the Teflon-glass homogeniser (5–6 vertical passes). The samples were centrifuged for 20 min at 10,000× g. The supernatant was then transferred into another set of centrifuge tubes and spun for 60 min at 100,000× g. The pellet was resuspended in Buffer B (0.1 M potassium pyrophosphate, 1 mM EDTA, and 20 μM butylated hydroxytoluene, at pH = 7.4), homogenised and recentrifuged for 60 min at 100,000× g. Finally, the pellet was homogenised in 1–2 mL of Buffer C (10 mM Tris-HCl, 1 mM EDTA, and 4% glycerol (v/v)) and stored at […] until used. The protein concentration of the microsomes was determined using the Bicinchoninic acid (BCA) method.
(§2) CYP3A catalytic activity was determined using the erythromycin-N-demethylation activity assay as described previously. The reaction mixture (final volume of 1 mL and final protein concentration of 1 mg) contained 500 µL of microsomes in 0.1 M phosphate buffer (pH = 7.4), 400 µL of erythromycin buffer (0.45 mM), and 50 µL of the test compound was pre-warmed at 37 °C for 2 min. The reaction was initiated with 50 µL of 2.5 mM […] and incubated at 37 °C for 30 min (optimised incubation time). The reaction was stopped with the addition of 330 µL of 15% zinc sulphate. Tubes were vortexed and left for 5 min (at room temperature) and then 330 µL of saturated barium hydroxide was added. Tubes were further vortexed and left for 5 min (at room temperature). Tubes were then centrifuged at 1800 g for 10 min. To 830 µL of the supernatant, 330 µL of Nash reagent (30% (w/v) ammonium acetate, 0.4% (v/v) acetyl acetone) was added and further incubated at 60 °C for 30 min. The blank tube contained 330 µL of Nash reagent and 830 µL of Milli-Q-water. The tubes were centrifuged again at 1800× g for 10 min and the absorbance was read at 415 nm. Results presented are the mean ± SEM of 3 independent experiments conducted in duplicate.

CYP3A [2] = test: CYP3A catalytic activity (erythromycin-N-demethylation), rat hepatic microsomes; type: in vitro ADME; conditions: for activity at 30 min, 12.5 µM / activity at 30 min, 25 µM: liver microsomes, pH 7.4, probe erythromycin, read-out: CYP3A catalytic activity, % of Control
Description: as §1, §2

UGT [3] = test: p-nitrophenol glucuronidation, rat hepatic microsomes; type: in vitro ADME
Description: as §1
(§3) The rate of p-nitrophenol glucuronidation was determined as previously reported. In short, the incubation mixture (500 µL in total) contained; 100 µL of 1 mg/mL microsomes, 50 µL of 1 M Tris-HCl (pH = 7.4), 20 µL of 0.25% (v/v) Triton-X 100, 50 µL of 50 mM MgCl2, 130 µL of double distilled water, 50 µL of 5 mM p-nitrophenol, 50 µL of the test compound, and 50 µL of uridine 5′-diphosphoglucuronic acid trisodium salt (UDPGA). The blank tubes had all components except UDPGA and microsomes; instead, 150 µL of 0.1 M phosphate buffer was added to equal the volume as the reaction mixture. The reaction mixture and the blank were incubated at 37 °C for 2 min. Then, 50 µL of 30 mM UDPGA was added to initiate the reaction which proceeded at 37 °C for 30 min (optimised incubation time). The reaction was stopped using 1 mL of 5% trichloroacetic acid (TCA). The tubes were centrifuged at 1800 g for 10 min and then 1 mL of supernatant was added to 250 µL of 2 M sodium hydroxide (NaOH). The absorbance was read at 405 nm. The sample reading was subtracted from the blank absorbance and divided by the extinction coefficient of p-nitrophenol ([…]) and the light path of the spectrophotometer (1 cm). The glucuronidation activities are expressed in µmol/mg/min and are the mean ± SEM of 3 independent experiments conducted in duplicate.

UGT [4] = test: p-nitrophenol glucuronidation, mouse hepatic microsomes; type: in vitro ADME
Description: as §1, §3

CYP3A [5] = test: CYP3A catalytic activity (erythromycin-N-demethylation), possum hepatic microsomes; type: in vitro ADME, possum (Trichosurus vulpecula); conditions: for activity at 30 min, 12.5 µM / activity at 30 min, 25 µM: possum (Trichosurus vulpecula), liver microsomes, pH 7.4, probe erythromycin, read-out: CYP3A catalytic activity, % of Control
Description: as §1, §2

UGT [6] = test: p-nitrophenol glucuronidation, possum hepatic microsomes; type: in vitro ADME, possum (Trichosurus vulpecula)
Description: as §1, §3

CYP3A [7] = conditions: possum vs human liver microsomes; cited from earlier work

## CCCCCC12CCC(C(=O)O)(CC1)CC2 [4-pentylbicyclo[2.2.2]octane-1-carboxylic acid]
CYP3A [1]; 12.5 µM
  CYP3A catalytic activity: 0.61 ± 0.04 nmol/mg/min
  activity at 30 min, 12.5 µM: 96.3 ± 1.91%
CYP3A [1]; 25 µM
  CYP3A catalytic activity: 0.67 ± 0.01 nmol/mg/min
  activity at 30 min, 25 µM: 106 ± 2.97%
CYP3A [2]; 12.5 µM
  CYP3A catalytic activity: 0.56 ± 0.05 nmol/mg/min
  activity at 30 min, 12.5 µM: 105 ± 3.3%
CYP3A [2]; 25 µM
  CYP3A catalytic activity: 0.55 ± 0.06 nmol/mg/min
  activity at 30 min, 25 µM: 102 ± 2.42%
UGT [3]; 12.5 µM
  p-nitrophenol glucuronidation activity: 2.88 ± 0.13 µmol/mg/min
  p-nitrophenol glucuronidation, % of Control: 103.95 ± 3.65%
UGT [3]; 25 µM
  p-nitrophenol glucuronidation activity: 2.82 ± 0.07 µmol/mg/min
  p-nitrophenol glucuronidation, % of Control: 101.89 ± 3.31%
UGT [4]; 12.5 µM
  p-nitrophenol glucuronidation activity: 2.41 ± 0.06 µmol/mg/min
  p-nitrophenol glucuronidation, % of Control: 98.73 ± 3.51%
UGT [4]; 25 µM
  p-nitrophenol glucuronidation activity: 2.21 ± 0.14 µmol/mg/min
  p-nitrophenol glucuronidation, % of Control: 90.15 ± 2.18 %
CYP3A [5]; 12.5 µM
  CYP3A catalytic activity: 0.40 ± 0.05 nmol/mg/min
  activity at 30 min, 12.5 µM: 109 ± 3.58%
CYP3A [5]; 25 µM
  CYP3A catalytic activity: 0.40 ± 0.02 nmol/mg/min
  activity at 30 min, 25 µM: 111 ± 7.26%
UGT [6]; 12.5 µM
  p-nitrophenol glucuronidation activity: 3.80 ± 0.27 µmol/mg/min
  p-nitrophenol glucuronidation, % of Control: 98.44 ± 1.05%
UGT [6]; 25 µM
  p-nitrophenol glucuronidation activity: 3.96 ± 0.17 µmol/mg/min
  p-nitrophenol glucuronidation, % of Control: 102.71 ± 1.91%

## CC12CCC(CC1=O)C2(C)C (centres unmarked) [Camphor, camphor]
CYP3A [1]; 12.5 µM
  CYP3A catalytic activity: 0.68 ± 0.02 nmol/mg/min
  activity at 30 min, 12.5 µM: 97.1 ± 2.15%
CYP3A [1]; 25 µM
  CYP3A catalytic activity: 0.68 ± 0.03 nmol/mg/min
  activity at 30 min, 25 µM: 96.3 ± 3.21%
CYP3A [2]; 12.5 µM
  CYP3A catalytic activity: 0.63 ± 0.03 nmol/mg/min
  activity at 30 min, 12.5 µM: 101 ± 3.99%
CYP3A [2]; 25 µM
  CYP3A catalytic activity: 0.59 ± 0.04 nmol/mg/min
  activity at 30 min, 25 µM: 95 ± 1.81%
UGT [3]; 12.5 µM
  p-nitrophenol glucuronidation activity: 2.62 ± 0.09 µmol/mg/min
  p-nitrophenol glucuronidation, % of Control: 102.59 ± 1.43%
UGT [3]; 25 µM
  p-nitrophenol glucuronidation activity: 2.72 ± 0.24 µmol/mg/min
  p-nitrophenol glucuronidation, % of Control: 106.26 ± 6.99%
UGT [4]; 12.5 µM
  p-nitrophenol glucuronidation activity: 2.42 ± 0.08 µmol/mg/min
  p-nitrophenol glucuronidation, % of Control: 104.80 ± 1.79%
UGT [4]; 25 µM
  p-nitrophenol glucuronidation activity: 2.31 ± 0.09 µmol/mg/min
  p-nitrophenol glucuronidation, % of Control: 100.10 ± 2.45%
CYP3A [5]; 12.5 µM
  CYP3A catalytic activity: 0.40 ± 0.03 nmol/mg/min
  activity at 30 min, 12.5 µM: 102 ± 2.05%
CYP3A [5]; 25 µM
  CYP3A catalytic activity: 0.41 ± 0.03 nmol/mg/min
  activity at 30 min, 25 µM: 104 ± 2.57%
UGT [6]; 12.5 µM
  p-nitrophenol glucuronidation activity: 4.01 ± 0.33 µmol/mg/min
  p-nitrophenol glucuronidation, % of Control: 102.42 ± 1.78%
UGT [6]; 25 µM
  p-nitrophenol glucuronidation activity: 3.97 ± 0.33 µmol/mg/min
  p-nitrophenol glucuronidation, % of Control: 101.32 ± 1.34%

## Cc1ncc2n1-c1ccc(Cl)cc1C(c1ccccc1F)=NC2 [midazolam]
CYP3A [7]
  Vmax of 1′-hydroxylmiazolam, fold lower in possum than in human liver microsomes: 8 fold
  Vmax of 4-hydroxymidazolam, fold lower in possum than in human liver microsomes: 23 fold

## O=C(O)C1CC2C=CC1O2 (centres unmarked) [7-oxabicyclo[2.2.1]-hept-5-ene-2-carboxylic acid]
CYP3A [1]; 12.5 µM
  CYP3A catalytic activity: 0.67 ± 0.01 nmol/mg/min
  activity at 30 min, 12.5 µM: 103 ± 2.77%
CYP3A [1]; 25 µM
  CYP3A catalytic activity: 0.66 ± 0.03 nmol/mg/min
  activity at 30 min, 25 µM: 103 ± 3.52%
CYP3A [2]; 12.5 µM
  CYP3A catalytic activity: 0.48 ± 0.06 nmol/mg/min
  activity at 30 min, 12.5 µM: 107 ± 5.87%
CYP3A [2]; 25 µM
  CYP3A catalytic activity: 0.51 ± 0.04 nmol/mg/min
  activity at 30 min, 25 µM: 114 ± 3.17%
UGT [3]; 12.5 µM
  p-nitrophenol glucuronidation activity: 2.87 ± 0.07 µmol/mg/min
  p-nitrophenol glucuronidation, % of Control: 102.50 ± 2.98%
UGT [3]; 25 µM
  p-nitrophenol glucuronidation activity: 2.75 ± 0.06 µmol/mg/min
  p-nitrophenol glucuronidation, % of Control: 98.20 ± 1.42%
UGT [4]; 12.5 µM
  p-nitrophenol glucuronidation activity: 3.46 ± 0.04 µmol/mg/min
  p-nitrophenol glucuronidation, % of Control: 101.00 ± 0.64%
UGT [4]; 25 µM
  p-nitrophenol glucuronidation activity: 3.26 ± 0.09 µmol/mg/min
  p-nitrophenol glucuronidation, % of Control: 95.53 ± 4.50%
CYP3A [5]; 12.5 µM
  CYP3A catalytic activity: 0.41 ± 0.02 nmol/mg/min
  activity at 30 min, 12.5 µM: 106 ± 7.47%
CYP3A [5]; 25 µM
  CYP3A catalytic activity: 0.40 ± 0.02 nmol/mg/min
  activity at 30 min, 25 µM: 103 ± 1.09%
UGT [6]; 12.5 µM
  p-nitrophenol glucuronidation activity: 4.02 ± 0.09 µmol/mg/min
  p-nitrophenol glucuronidation, % of Control: 99.13 ± 1.29%
UGT [6]; 25 µM
  p-nitrophenol glucuronidation activity: 3.99 ± 0.09 µmol/mg/min
  p-nitrophenol glucuronidation, % of Control: 98.49 ± 0.83%

## COC(=O)[C@H]1CC[C@H](C(=O)OC)CC1 [dimethyl-trans-cyclohexane-1,4-dicarboxylate]
CYP3A [1]; 12.5 µM
  CYP3A catalytic activity: 0.72 ± 0.02 nmol/mg/min
  activity at 30 min, 12.5 µM: 100 ± 1.31%
CYP3A [1]; 25 µM
  CYP3A catalytic activity: 0.77 ± 0.05 nmol/mg/min
  activity at 30 min, 25 µM: 106 ± 4.88%
CYP3A [2]; 12.5 µM
  CYP3A catalytic activity: 0.64 ± 0.02 nmol/mg/min
  activity at 30 min, 12.5 µM: 102 ± 2.42%
CYP3A [2]; 25 µM
  CYP3A catalytic activity: 0.73 ± 0.06 nmol/mg/min
  activity at 30 min, 25 µM: 116 ± 5.35%
UGT [3]; 12.5 µM
  p-nitrophenol glucuronidation activity: 2.71 ± 0.13 µmol/mg/min
  p-nitrophenol glucuronidation, % of Control: 90.77 ± 2.49%
UGT [3]; 25 µM
  p-nitrophenol glucuronidation activity: 2.83 ± 0.20 µmol/mg/min
  p-nitrophenol glucuronidation, % of Control: 94.83 ± 5.80%
UGT [4]; 12.5 µM
  p-nitrophenol glucuronidation activity: 2.43 ± 0.06 µmol/mg/min
  p-nitrophenol glucuronidation, % of Control: 107.00 ± 0.42%
UGT [4]; 25 µM
  p-nitrophenol glucuronidation activity: 2.73 ± 0.12 µmol/mg/min
  p-nitrophenol glucuronidation, % of Control: 120.23 ± 8.23 %
CYP3A [5]; 12.5 µM
  CYP3A catalytic activity: 0.39 ± 0.02 nmol/mg/min
  activity at 30 min, 12.5 µM: 102 ± 4.76%
CYP3A [5]; 25 µM
  CYP3A catalytic activity: 0.42 ± 0.03 nmol/mg/min
  activity at 30 min, 25 µM: 111 ± 6%
UGT [6]; 12.5 µM
  p-nitrophenol glucuronidation activity: 3.96 ± 0.20 µmol/mg/min
  p-nitrophenol glucuronidation, % of Control: 102.94 ± 4.63%
UGT [6]; 25 µM
  p-nitrophenol glucuronidation activity: 3.92 ± 0.19 µmol/mg/min
  p-nitrophenol glucuronidation, % of Control: 101.67 ± 0.92%
